Laboratory results: patent US7329661B2, “N-phenyl-3-pyrimidine-amine derivatives” (Novartis AG, priority 2000, dated 2008)

Tests used:
[1] = test system: CYP3A4/5; experiment: Risk of metabolic drug interaction from in vitro P450 inhibition, CYP3A4/5; assay type: in vitro ADME, human; conditions: ratio of plasma concentration to Ki
Excerpt: (§1) In order to evaluate the effect of the compounds of formula I on cytochromes P450 (CYPs), e.g. enzyme inhibition is routinely assessed by performing in vitro inhibition studies using cDNA-expressed enzymes or human liver microsomes (Parkinson, A., Toxicol. Pathol. 24, 45-57 [1996]). Specific drug marker substrate assays according to Tucker et al., Clin. Pharmacol. Ther. 70, 103-114 (2001) can be used to determine the 50% inhibition concentration (IC50) of a compound of formula I for the principal drug-metabolizing P450 enzymes such as e.g. CYP1A2, CYP2A6, CYP2B6, CYP2C8, CYP2C9, CYP2C19, CYP2D6, CYP2E1, CYP3A4/5 and CP4A9/11.
(§2) Inhibition constants Ki or IC50 values derived by these in vitro assays provide a measure for the inhibition capacity of the tested drug compound according to the ratio of drug concentration in plasma to the respective inhibition constant Ki, where a ratio of >1.0 results in a high risk, 1.0-0.1 in a medium risk, and <0.1 in a low risk of metabolic drug interaction.

[2] = molecular target: CYP2D6 (Homo sapiens, UniProt P10635); experiment: Risk of metabolic drug interaction from in vitro P450 inhibition, CYP2D6; assay type: in vitro ADME; conditions: ratio of plasma concentration to Ki
Excerpt: as §1, §2

[3] = test system: certain cytochrome P450 enzymes; experiment: Cytochrome P450 inhibition in vitro; assay type: in vitro ADME, human
Excerpt: as §1, §2

[4] = Human plasma level and half-life; assay type: in vivo

CYP2D6, sequence (P10635 whole entry): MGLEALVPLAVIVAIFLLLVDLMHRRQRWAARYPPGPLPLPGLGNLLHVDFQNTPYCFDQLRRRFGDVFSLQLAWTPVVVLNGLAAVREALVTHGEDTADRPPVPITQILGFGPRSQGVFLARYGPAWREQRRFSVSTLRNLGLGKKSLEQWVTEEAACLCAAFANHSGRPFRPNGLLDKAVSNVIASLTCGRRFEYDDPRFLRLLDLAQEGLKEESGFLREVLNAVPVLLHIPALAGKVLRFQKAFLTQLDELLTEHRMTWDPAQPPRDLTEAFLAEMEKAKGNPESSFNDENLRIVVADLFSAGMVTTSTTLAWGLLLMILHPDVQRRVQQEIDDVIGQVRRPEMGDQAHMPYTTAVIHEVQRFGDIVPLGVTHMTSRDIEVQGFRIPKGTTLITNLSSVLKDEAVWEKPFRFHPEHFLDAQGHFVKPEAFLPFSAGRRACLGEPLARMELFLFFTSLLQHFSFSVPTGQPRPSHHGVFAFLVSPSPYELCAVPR

Row | melting point [°C] | risk of drug-drug interactions compared with STI571 [1] | risk of drug-drug interactions compared with STI571 [2] | inhibition of certain cytochrome P450 enzymes compared with STI571 [3] | half-life compared with STI571 [4] | SMILES
1 | 209.5 to 210.5 | – | – | – | – | CCN1CCN(Cc2ccc(C(=O)Nc3ccc(C)c(Nc4nccc(-c5cccnc5)n4)c3)cc2)CC1 [Example 1, 4-(4-ethyl-piperazin-1-ylmethyl)-N-[4-methyl-3-(4-pyridin-3-yl-pyrimidin-2-ylamino)-phenyl]-benzamide]
2 | – | much lower risk | much lower risk | less inhibition | somewhat longer than that of STI571 | Cc1ccc(NC(=O)c2ccc(CN3CCNCC3)cc2)cc1Nc1nccc(-c2cccnc2)n1 [Example 9, N-[4-methyl-3-(4-pyridin-3-yl-pyrimidin-2-ylamino)-phenyl]-4-piperazin-1-ylmethyl-benzamide]
3 | 242 to 245 | – | – | – | – | CS(=O)(=O)O.Cc1ccc(NC(=O)c2ccc(CN3CCNCC3)cc2)cc1Nc1nccc(-c2cccnc2)n1 [Example 10, N-[4-methyl-3-(4-pyridin-3-yl-pyrimidin-2-ylamino)-phenyl]-4-piperazin-1-ylmethyl-benzamide methanesulfonate]
